Test results taken from US20030082625A1, “Method for the pretreatment of a surface for the reduction of non-specific binding by chemical entities” (priority 2001, published 2003).

Columns and labels:
[1] = Non-specific binding (NSB) of drugs to ultrafiltration membrane filter, regenerated cellulose (Millipore Ultrafree-MC UFC 3LGC00, 10 k NMWL); type: physicochemical; settings: for NSB (%) Control / NSB (%) Tween 80 / NSB (%) BAK / NSB (%) Serum / NSB (%) 0.5% Tween / NSB (%) 0.5% BAK / NSB (%) 1% Tween / NSB (%) 1% BAK / NSB (%) 2% Tween / NSB (%) 2% BAK / NSB (%) 5% Tween / NSB (%) 5% BAK / NSB (%) SLS: regenerated cellulose; for NSB (%) Tween 80: pretreatment with 0.5% Tween 80; for NSB (%) BAK: pretreatment with 0.5% benzalkonium chloride; for NSB (%) Serum: pretreatment with human serum; for NSB (%) RC: regenerated cellulose membrane, drug concentration 10 uM; for NSB (%) 0.5% Tween: pretreatment 0.5% Tween 80; for NSB (%) 0.5% Tween / NSB (%) 1% Tween / NSB (%) 2% Tween / NSB (%) 5% Tween: drug 5 uM; for NSB (%) 0.5% BAK: pretreatment 0.5% benzalkonium chloride; for NSB (%) 0.5% BAK / NSB (%) 1% BAK / NSB (%) 2% BAK / NSB (%) 5% BAK: drug 10 uM; for NSB (%) 1% Tween: pretreatment 1% Tween 80; for NSB (%) 1% BAK: pretreatment 1% benzalkonium chloride; for NSB (%) 2% Tween: pretreatment 2% Tween 80; for NSB (%) 2% BAK: pretreatment 2% benzalkonium chloride; for NSB (%) 5% Tween: pretreatment 5% Tween 80; for NSB (%) 5% BAK: pretreatment 5% benzalkonium chloride; for NSB (%) SLS: pretreatment with 0.5% sodium lauryl sulfate
Description: (§1) Various experiments were performed using the following reagents, surfactants and reservoirs (also comprising ultrafiltration units): human serum, pH 7.4 phosphate buffered saline (PBS), drug solution (i.e. compound) in serum at a concentration of 1-50 μM, and drug solution in PBS at a concentration of 1-50 μM were used as reagents. Surfactant solutions were 0.01-20% Tween 80 (polyoxyethylene 20 sorbitan monooleate) in PBS as neutral solution, 0.01-20% Benzalkonium chloride (BAK) in PBS as cationic solution, 0.01-20% Sodium lauryl sulfate (SLS) in PBS as anionic solution. An ultrafiltration reservoir (Millipore, Ultrafree-MC) comprising regenerated cellulose (UFC 3LGC00, 10 k NMWL) or polyethersulfone (UFC 3BSC00, 10 k NMWL) was used.
(§2) The upper ultrafiltration cup was connected to the reservoir tube and 25 μL surfactant solution was added to each well. After bedewing for 5 min, the reservoir tube containing the ultrafiltration cup was centrifuged for 10 min at 3000 g and room temperature.
(§3) 200 μL of PBS was added to each ultrafiltration cup and equilibrated for 30 min. Remaining PBS was removed from the ultrafiltration cup by gentle tapping the cup. The upper ultrafiltration cup was reconnected to a new reservoir tube, and 400 μL drug solution (1-50 μM) in serum or PBS was applied and equilibrated for 1 hr at room temperature.
(§4) The ultrafiltration tube was centrifuged for 18 min at 3000 g at room temperature. 50 μL sample was taken from the receiver (filtrate) and donor (drug solution in serum or PBS) for bioanalysis. Non-specific binding was calculated as follows:
(§5) NSB=(Cf1-Cf2)/Cf1, where NSB: non specific binding to membrane filter at pH 7.4 isotonic PBS, Cf1: free drug before filtration, and Cf2: free drug in the filtrate after filtration

[2] = Non-specific binding (NSB) of drugs to ultrafiltration membrane filter, polyethersulfone (Millipore Ultrafree-MC UFC 3BSC00, 10 k NMWL); type: physicochemical; settings: no pretreatment, drug concentration 10 uM
Description: as §1, §2, §3, §4, §5

[3] = no surfactant pretreatment, drug concentration 5 uM, pH 7.4 PBS
[4] = no pretreatment, drug concentration 50 uM

Row | Compound | NSB (%) Control [1, 3] [%] | NSB (%) Tween 80 ([1]; drug concentration 5 uM) [%] | NSB (%) BAK ([1]; drug concentration 5 uM) [%] | NSB (%) Control [1, 4] [%] | NSB (%) Serum ([1]; drug concentration 50 uM) [%] | NSB (%) RC ([1]; no pretreatment) [%] | NSB (%) PES [2] [%] | NSB (%) 0.5% Tween [1] [%] | NSB (%) 0.5% BAK [1] [%] | NSB (%) 1% Tween [1] [%] | NSB (%) 1% BAK [1] [%] | NSB (%) 2% Tween [1] [%] | NSB (%) 2% BAK [1] [%] | NSB (%) 5% Tween [1] [%] | NSB (%) 5% BAK [1] [%] | NSB (%) SLS ([1]; drug concentration 50 uM) [%]
1 | Cc1cc(=O)n(-c2ccccc2)n1C [Antipyrine] | 10 | 0 | 0 |  |  |  |  |  |  |  |  |  |  |  |  | 
2 | Cn1c(=O)c2c(ncn2C)n(C)c1=O [Caffeine] | 17 | 0 | 0 |  |  |  |  |  |  |  |  |  |  |  |  | 
3 | COc1cc([C@@H]2c3cc4c(cc3[C@@H](O[C@@H]3O[C@@H]5CO[C@@H](C)O[C@H]5[C@H](O)[C@H]3O)[C@H]3COC(=O)[C@H]23)OCO4)cc(OC)c1O [Etoposide] | 91 | 23.1 | 28.3 | 91 | 93 | 91 | 93 |  |  |  |  |  |  |  |  | 
4 | C[C@]12CCC(=O)C=C1CC[C@@H]1[C@@H]2[C@@H](O)C[C@@]2(C)[C@H]1CC[C@]2(O)C(=O)CO [Hydrocortisone] | 87 | 21.1 | 25 | 87 | 84 | 87 | 71 | 52 | 30 | 35 | 22 | 33 | 16 | 30 | 14 | 62
5 | CC(C)Cc1ccc(C(C)C(=O)O)cc1 (centres unmarked) [Ibuprofen] | 29 | 2.3 |  |  |  |  |  |  |  |  |  |  |  |  |  | 
6 | CC(C(=O)O)c1cccc(C(=O)c2ccccc2)c1 (centres unmarked) [Ketoprofen] | 34 | 4.1 |  |  |  |  |  |  |  |  |  |  |  |  |  | 
7 | CC(C)NCC(O)COc1cccc2ccccc12 (centres unmarked) [Propranolol] | 91 | 46.5 | 13 | 91 | 90 | 91 | 69 | 66 | 14 | 65 | 15 | 60 | 5 | 52 | 10 | 84
8 | Cn1c(=O)c2[nH]cnc2n(C)c1=O [Theophylline] | 8 | 0 | 0 |  |  |  |  |  |  |  |  |  |  |  |  | 
9 | COc1ccc(CCN(C)CCCC(C#N)(c2ccc(OC)c(OC)c2)C(C)C)cc1OC (centres unmarked) [Verapamil] |  |  |  |  |  |  |  |  | 43 |  | 34 |  | 25 |  | 12 | 
10 | CC[C@]1(O)C[C@@H]2CN(CCc3c([nH]c4ccccc34)[C@@](C(=O)OC)(c3cc4c(cc3OC)N(C)[C@H]3[C@@](O)(C(=O)OC)[C@H](OC(C)=O)[C@]5(CC)C=CCN6CC[C@]43[C@@H]65)C2)C1 [Vinblastine] | 95 | 95.2 | 64 |  |  | 95 | 95 |  | 82 |  | 79 |  | 68 |  | 59 | 
